Laboratory results published in ChEMBL document CHEMBL1201862, “PubChem BioAssay data set” (2004).
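Where inhibition never reached the appropriate level, the endpoint shown equals the highest concentration tested. Otherwise, values were interpolated linearly from a five-concentration, 48-hour dose response in 96-well plates. Abbreviation: GI50, concentration required for 50% inhibition of growth.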 Activity calls are given as the source filed them. Rule as the data show it: active = GI50 up to about 1.1 µM and inactive = higher.

How the values were obtained:
Experiment in all cases: NCI-60 cell line screen, 48 h
786-0 = tested on: 786-0
A498 = tested on: A498
A549 = tested on: A549
ACHN = tested on: ACHN
DU-145 = tested on: DU-145
HCC 2998 = tested on: HCC 2998
HT-29 = tested on: HT-29
IGROV-1 = tested on: IGROV-1
MDA-MB-435 = tested on: MDA-MB-435
Malme-3M = tested on: Malme-3M
NCI-H23 = tested on: NCI-H23
NCI-H522 = tested on: NCI-H522
OVCAR-4 = tested on: OVCAR-4
RPMI-8226 = tested on: RPMI-8226
RXF 393 = tested on: RXF 393
SK-MEL-2 = tested on: SK-MEL-2
SK-MEL-5 = tested on: SK-MEL-5
UACC-257 = tested on: UACC-257
PC-3 = tested on: PC-3
TK-10 = tested on: TK-10

Compound	GI50 (786-0)	GI50 (A498)	GI50 (A549)	GI50 (ACHN)	GI50 (DU-145)	GI50 (HCC 2998)	GI50 (HT-29)	GI50 (IGROV-1)	GI50 (MDA-MB-435)	GI50 (Malme-3M)	GI50 (NCI-H23)	GI50 (NCI-H522)	GI50 (OVCAR-4)	GI50 (RPMI-8226)	GI50 (RXF 393)	GI50 (SK-MEL-2)	GI50 (SK-MEL-5)	GI50 (UACC-257)	GI50 (PC-3)	GI50 (TK-10)
C/C(=N\Nc1nc2ccccc2n1C)c1cc2ccccc2cn1	< 0.0173 µM (active)	0.194 µM (active)	0.0327 µM (active)	< 0.01 µM (active)	1.58 µM (inactive)	11.6 µM (inactive)	< 0.0118 µM (active)	< 0.0128 µM (active)	0.295 µM (active)	< 0.01 µM (active)	< 0.0172 µM (active)	< 0.01 µM (active)	0.0423 µM (active)	< 0.01 µM (active)	0.229 µM (active)	0.805 µM (active)	0.0286 µM (active)	< 0.0105 µM (active)	–	–
CCc1cccc(C(C)C)c1NC(=O)C(=O)Nn1c(S)nc2ccccc2c1=O	> 100 µM (inactive)	> 100 µM (inactive)	> 100 µM (inactive)	> 100 µM (inactive)	–	> 100 µM (inactive)	> 100 µM (inactive)	59.4 µM (inactive)	> 100 µM (inactive)	> 100 µM (inactive)	> 100 µM (inactive)	> 100 µM (inactive)	> 100 µM (inactive)	> 100 µM (inactive)	> 100 µM (inactive)	> 100 µM (inactive)	> 100 µM (inactive)	> 100 µM (inactive)	> 100 µM (inactive)	> 100 µM (inactive)
CC(=O)O[C@H]1/C(=C/c2ccc(N(C)C)cc2)C[C@H]2[C@@H]3CC=C4C[C@@H](N5CCCC5)CC[C@]4(C)[C@H]3CC[C@]12C	> 100 µM (inactive)	> 100 µM (inactive)	> 100 µM (inactive)	> 100 µM (inactive)	> 100 µM (inactive)	–	63.2 µM (inactive)	> 100 µM (inactive)	–	> 100 µM (inactive)	> 100 µM (inactive)	–	–	> 100 µM (inactive)	> 100 µM (inactive)	> 100 µM (inactive)	> 100 µM (inactive)	> 100 µM (inactive)	> 100 µM (inactive)	> 100 µM (inactive)
CC(C)c1ccc2c(c1)[C@@]1(C)CC[C@H](C)C(C)(C)C1CC2 (some centres undefined)	18.1 µM (inactive)	17.7 µM (inactive)	17.4 µM (inactive)	18.6 µM (inactive)	25.7 µM (inactive)	20.9 µM (inactive)	16.3 µM (inactive)	51.8 µM (inactive)	16.9 µM (inactive)	18.5 µM (inactive)	18.8 µM (inactive)	27.4 µM (inactive)	15.9 µM (inactive)	18.4 µM (inactive)	17.5 µM (inactive)	26.4 µM (inactive)	20.3 µM (inactive)	19.5 µM (inactive)	–	17.6 µM (inactive)
O=[N+]([O-])c1c(O)c2nonc2c2nn(-c3ccccc3)nc12	> 100 µM (inactive)	–	> 100 µM (inactive)	> 100 µM (inactive)	> 100 µM (inactive)	> 100 µM (inactive)	> 100 µM (inactive)	> 100 µM (inactive)	> 100 µM (inactive)	> 100 µM (inactive)	> 100 µM (inactive)	40 µM (inactive)	83.4 µM (inactive)	> 100 µM (inactive)	–	> 100 µM (inactive)	> 100 µM (inactive)	> 100 µM (inactive)	> 100 µM (inactive)	55.3 µM (inactive)
O=C(O)C(/C=C/c1ccccc1)c1ccccc1 (centres undefined)	> 100 µM (inactive)	> 100 µM (inactive)	> 100 µM (inactive)	> 100 µM (inactive)	> 100 µM (inactive)	–	> 100 µM (inactive)	> 100 µM (inactive)	–	> 100 µM (inactive)	> 100 µM (inactive)	69.7 µM (inactive)	–	> 100 µM (inactive)	> 100 µM (inactive)	> 100 µM (inactive)	> 100 µM (inactive)	> 100 µM (inactive)	> 100 µM (inactive)	> 100 µM (inactive)
CC(O[Si](c1ccccc1)(c1ccccc1)C(C)(C)C)[C@H](NC(=O)OC(C)(C)C)C(=O)O (some centres undefined)	42.4 µM (inactive)	82.6 µM (inactive)	30.4 µM (inactive)	30.8 µM (inactive)	> 10 µM (inactive)	36.2 µM (inactive)	32.2 µM (inactive)	20.6 µM (inactive)	–	50 µM (inactive)	33 µM (inactive)	–	26.4 µM (inactive)	35.6 µM (inactive)	35 µM (inactive)	–	21.6 µM (inactive)	36.1 µM (inactive)	26.6 µM (inactive)	45 µM (inactive)
